{"source": "patent US11149028B2", "about": "“Methods for treating melanoma using small molecules” (NOVA SOUTHEASTERN UNIVERSITY, priority 2016, dated 2021)", "key": {"M14 cells": {"test_system": "M14 cells", "method": "ApoTox-Glo™ Triplex Assay which allows one to simultaneously assess the effect of small molecules on cell viability, toxicity, caspase activity, and cell cycle all in the same well (Niles, A. L.; Moravec, R. A.; Riss, T. L. In vitro viability and cytotoxicity testing and same-well multi-parametric combinations for high throughput screening. Curr Chem Genomics 2009, 3, 33-41) was utilized. First, a mixture of 2 fluorogenic substrates was added to cells. GF-AFC substrate is cell-permeant and non-lytic to cells, allowing the measurement of active protease inside live cells. The second substrate (bis-AAF-R110 Substrate) is not cell-permeable and is only cleaved when proteases are released from cells due to the loss of membrane integrity typical of cell death. This step generates an inversely correlated measurement of cell viability and toxicity.\nThe second addition is luminogenic DEVD-peptide substrate for caspase-3/7 and Ultra-Glo™ Recombinant Thermostable Luciferase. Caspase-3/7 cleavage of the substrate generates a luminescent signal which correlates with caspase-3/7 activation as a key indicator of apoptosis. As markers for cytotoxicity and apoptosis are transient, the assay was conducted in time course format with time points at 4, 24, 48, and 72 h.\nM14 #5 cells were plated in 384-well format at a density of 1,250 cells in 5 μL of serum-free DMEM media and incubated at 37° C. in 5% CO2 for 4 h. Control and test compounds were serially diluted in a ratio of 1:3 and added to wells in 4 μL. […] Plates were incubated at 37° C. in 5% CO2 for 4, 24, 48, and 72 h. At the end of each time point Viability/Cytotoxicity™ Reagent was prepared containing 400 μM glycylphenylalanyl-aminofluorocoumarin (GF-AFC) substrate (cleavable by live cell proteases) and 400 μM bis-alanylalanyl-phenylalanyl-rhodamine 110 (bis-AAF-R110) substrate (cleavable by dead cell proteases). 4 μL of the Viability/Cytotoxicity™ Reagent was used per well. The plate was incubated for 30 min at 37° C. Fluorescence was read at λEx=400 nm and λEm=505 nm for GF-AFC and λEx=485 nm and λEm=520 nm for bis-AAF-R110 on the BioTek Synergy™ 4 Multi-Mode Microplate Reader. Caspase-Glo® 3/7 Reagent was then added in 12 μL volume. The plate was incubated for 30 min at room temperature and luminescence was measured on the BioTek Synergy™ 4 Multi-Mode Microplate Reader."}, "WM266-4 cells [1]": {"test_system": "WM266-4 cells", "assay": "Mitochondrial potential assay", "assay_type": "cell-based, human", "details": "1 and 4 h; time stated at the place", "method": "5,000 WM266-4 cells were seeded in 100 μL of EMEM medium supplemented with 10% FBS in 24-well plate. The cells were treated with carbonyl cyanide m-chlorophenyl hydrazone (CCCP, 25-50 μM) as a pharmacological control and 1-100 μM of 2155-14. After 1, 4, and 24 h, the cells were stained with 200 nM of Mito-Tracker dye (ThermoFisher cat #M22425) and DAPI for 1 h. Finally, the cells were washed with PBS and media was added. The cells were imaged and analyzed using Cytation 5 imager using Cy5 and DAPI filter sets (Biotek Inc, Winoosky, Vt.). To calculate staining intensity, the Object Sum Area value from Cy5 channel was obtained and divided by number of cells using DAPI channel. Both Cy5 and DAPI cell counts were conducted using optimized algorithm in automatic mode. 3 replicate wells were used."}, "WM266-4 cells [2]": {"test_system": "WM266-4 cells", "assay": "Annexin V flow cytometry assay", "assay_type": "cell-based, human", "details": "100 μM", "source_text": "After 4, 24 and 48 hrs of compound exposure the adherent and floating cells were combined and stained using the TACS Annexin V-FITC Apoptosis detection kit (Trevigen Inc, Gaithersburg, Md., USA) using manufacturer's protocol. Viable, necrotic, early and late apoptotic cells were counted using Accuri flow cytometer as per the manufacturer instructions."}, "calpain in WM266-4 cells": {"test_system": "calpain in WM266-4 cells", "assay": "Calpain activity assay (Calpain-Glo)", "assay_type": "cell-based, human", "details": "100 μM; 30 min, 4 and 24 h", "method": "The Calpain-Glo Protease Assay (Promega cat #) was used to measure the calpain enzyme activity in live cells, according to the manufacturer's instructions. 1,250 of WM-266-4 cells were plated in 384-well white TC-treated plates in 5 μL of serum-free EMEM media. The cells were incubated overnight at 37° C., 5% CO2 and 95% relative humidity and 5 μL of test compounds 2155-14, (100 μM), calpain inhibitor III and PD151746 (25 μM) were added alone or in combination and incubated at 37° C., 5% CO2, and 95% relative humidity for 0.5, 4, and 24 h. After incubation, 10 μL, of a freshly prepared dilution of the Calpain-Glo Reagent stock solution (consisting of Suc-LLVY-Glo™ substrate, Calpain-Glo™ buffer, Luciferin Detection Reagent, and CaCl2) was added to cells at above mentioned times and luminescence was recorded with a Neo 2 microplate reader (Biotek Inc). All experiments were performed in triplicate and the values provided are the calculated average of at least three independent experiments."}, "[3]": {"details": "time course 4-72 h, time stated at the place"}}, "note": "“Also recorded” adds a separate entry of the source. Like-named read-outs stand apart in the source and are kept apart here.", "data": [{"smiles": "O=C1NC[C@H](Cc2ccccc2)N(C[C@@H]2CCCN2C[C@@H](CC2CCCCC2)N2C[C@H](Cc3ccc(O)cc3)N(CCc3ccccc3)C(=O)C2=O)C1=O", "note": "[Compound 2155-14, (S)-1((R)-1((S)-2-(((S)-6-benzyl-2,3-dioxopiperazin-1-yl)methyl)pyrrolidin-1-yl)-3-cyclohexylpropan-2-yl)-5-(4-hydroxybenzyl)-4-phenethylpiperazine-2,3-dione]", "values": [{"measurement": "caspase signal", "setting": "M14 cells; 24 h", "value": "550 % of untreated control"}, {"measurement": "caspase signal", "setting": "M14 cells; 48 h", "value": "400 % of untreated control"}, {"measurement": "ApoTox caspase-3/7 activity", "setting": "M14 cells; [3]", "value": "no markers for apoptosis and cytotoxicity; also recorded: The 24 h time point was characterized by a significant spike in caspase activity; also recorded: By 72 h the caspase signal has decayed"}, {"measurement": "ApoTox viability (live cell protease)", "setting": "M14 cells; [3]", "value": "no effect on cell viability as measured by live cell protease at the 4 h time point; also recorded: dose dependent response at 48 h"}, {"measurement": "mitochondrial potential", "setting": "WM266-4 cells [1]", "value": "no significant effect 1 h after the addition of compounds; also recorded: At 4 h, mitochondrial potential was decreased; also recorded: no significance between untreated control and cells treated with 2155-14"}, {"measurement": "early apoptotic and necrotic cells, of total population", "setting": "WM266-4 cells [2]", "value": "less than 5%"}, {"measurement": "cells undergoing late apoptosis", "setting": "WM266-4 cells [2]; 24 h", "value": 18, "unit": "%"}, {"measurement": "cells undergoing late apoptosis", "setting": "WM266-4 cells [2]; 48 h", "value": 32, "unit": "%"}, {"measurement": "cells undergoing late apoptosis in presence of Z-VAD-FMK", "setting": "WM266-4 cells [2]; 48 h, 10 μM pan-caspase inhibitor", "value": 29, "unit": "%"}, {"measurement": "calpain activity", "setting": "calpain in WM266-4 cells", "value": "Calpain activity at 30 min was at the baseline level; also recorded: time-dependent increase of activity at 4 and 24 h"}]}]}
